Laboratory results: ChEMBL document CHEMBL1201862, “PubChem BioAssay data set” (2004)
The source made the active and inactive calls.

Legend:
[1] = target: T1, RNA-binding protein pos-1 (Caenorhabditis elegans, UniProt G5EF15); assay: disruptors of C. elegans POS-1 RNA interaction – biochemical, fluorescence polarization, dose response (AID 1964);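 note: purified POS-1 fused to maltose binding protein made in E. coli; potency of compounds blocking POS-1 binding to fluorescent RNA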
T1 sequence (G5EF15 whole entry): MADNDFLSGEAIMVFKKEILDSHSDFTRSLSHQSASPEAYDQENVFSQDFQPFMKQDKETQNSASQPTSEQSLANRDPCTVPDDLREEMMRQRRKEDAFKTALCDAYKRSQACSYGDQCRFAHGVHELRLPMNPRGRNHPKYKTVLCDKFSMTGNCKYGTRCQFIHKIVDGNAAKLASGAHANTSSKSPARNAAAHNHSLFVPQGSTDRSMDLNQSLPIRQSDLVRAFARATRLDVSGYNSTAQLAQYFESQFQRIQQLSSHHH

[2] = target: Guanyl-specific ribonuclease T1 (Aspergillus oryzae (strain ATCC 42149 / RIB 40), UniProt P00651); assay: inhibition of ribonuclease T1 activity – biochemical, fluorescence polarization, 1536-well, counter-screen for TPT1 inhibitor project, dose response (AID 2167)
[3] = target: T2, Zinc finger protein mex-5 (Caenorhabditis elegans, UniProt Q9XUB2); assay: potency of MEX-5 RNA-binding blockers – biochemical, C. elegans, fluorescence polarization, dose response (AID 1960)
T2 sequence (Q9XUB2 whole entry): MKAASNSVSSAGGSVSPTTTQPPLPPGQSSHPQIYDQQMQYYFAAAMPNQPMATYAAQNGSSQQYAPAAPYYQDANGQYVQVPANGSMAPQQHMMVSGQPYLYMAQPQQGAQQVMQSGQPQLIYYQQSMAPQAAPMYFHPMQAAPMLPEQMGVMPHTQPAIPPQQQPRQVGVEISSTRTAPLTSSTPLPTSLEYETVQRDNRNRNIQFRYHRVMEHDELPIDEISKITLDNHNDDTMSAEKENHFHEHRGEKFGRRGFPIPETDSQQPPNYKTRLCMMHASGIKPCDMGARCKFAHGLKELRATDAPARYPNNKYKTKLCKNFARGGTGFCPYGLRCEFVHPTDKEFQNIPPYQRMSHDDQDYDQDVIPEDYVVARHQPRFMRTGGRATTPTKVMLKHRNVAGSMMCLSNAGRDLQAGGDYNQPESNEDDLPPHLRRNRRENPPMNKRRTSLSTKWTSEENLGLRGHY

[4] = target: Likely tRNA 2'-phosphotransferase (Candida albicans (strain SC5314 / ATCC MYA-2876) (Yeast), UniProt Q5A7N4); assay: inhibition of Candida TPT1 enzyme activity – biochemical, fluorescence polarization, dose response (AID 2160)
Bcl-2-like protein 10 = Bcl-2-like protein 10 (Homo sapiens, UniProt Q9HD36); assay: Bcl-B/TR3 peptide binding disruption – biochemical, fluorescence polarization, FITC-TR3 peptide, selectivity assay for Bfl-1 inhibitor project, primary screen (AID 748);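 note: fluorescence polarization from a fluorescein-labelled TR3 peptide binding purified Bcl-B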
[5] = viability of PTEN-deleted HCT116 cells – cell-based, HCT116 PTEN knockout, dose response (AID 1047); format: functional;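 note: HCT116 colon tumor cells with PTEN knocked out; cells exposed to compound for 60 hours before readout; potency for loss of cell viability measured by luminescence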
[6] = viability of HCT116 lacking mutant beta-catenin – cell-based, human colon tumor, dose response (AID 1045); format: functional;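 note: HCT116 colon tumor cells with beta catenin knocked out; cells exposed to compound for 60 hours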
[7] = target: Eukaryotic translation initiation factor 4H (Homo sapiens, UniProt Q15056); assay: eIF4H binding inhibition – biochemical, uHTS, fluorescence polarization, translation initiation inhibitor project, primary screen (AID 2012)
[8] = target: T3, Polyadenylate-binding protein 1 (Homo sapiens, UniProt P11940); assay: blockers of PABP interaction with poly(A) – biochemical, fluorescence polarization, […] (AID 2014)
[9] = target: T4, Eukaryotic translation initiation factor 2-alpha kinase 3 (Homo sapiens, UniProt Q9NZJ5); assay: Dose response cell-based high-throughput screening assay to measure PERK inhibition. [Related pubchem assays: 1416 ]; format: functional
T4 sequence (Q9NZJ5 whole entry): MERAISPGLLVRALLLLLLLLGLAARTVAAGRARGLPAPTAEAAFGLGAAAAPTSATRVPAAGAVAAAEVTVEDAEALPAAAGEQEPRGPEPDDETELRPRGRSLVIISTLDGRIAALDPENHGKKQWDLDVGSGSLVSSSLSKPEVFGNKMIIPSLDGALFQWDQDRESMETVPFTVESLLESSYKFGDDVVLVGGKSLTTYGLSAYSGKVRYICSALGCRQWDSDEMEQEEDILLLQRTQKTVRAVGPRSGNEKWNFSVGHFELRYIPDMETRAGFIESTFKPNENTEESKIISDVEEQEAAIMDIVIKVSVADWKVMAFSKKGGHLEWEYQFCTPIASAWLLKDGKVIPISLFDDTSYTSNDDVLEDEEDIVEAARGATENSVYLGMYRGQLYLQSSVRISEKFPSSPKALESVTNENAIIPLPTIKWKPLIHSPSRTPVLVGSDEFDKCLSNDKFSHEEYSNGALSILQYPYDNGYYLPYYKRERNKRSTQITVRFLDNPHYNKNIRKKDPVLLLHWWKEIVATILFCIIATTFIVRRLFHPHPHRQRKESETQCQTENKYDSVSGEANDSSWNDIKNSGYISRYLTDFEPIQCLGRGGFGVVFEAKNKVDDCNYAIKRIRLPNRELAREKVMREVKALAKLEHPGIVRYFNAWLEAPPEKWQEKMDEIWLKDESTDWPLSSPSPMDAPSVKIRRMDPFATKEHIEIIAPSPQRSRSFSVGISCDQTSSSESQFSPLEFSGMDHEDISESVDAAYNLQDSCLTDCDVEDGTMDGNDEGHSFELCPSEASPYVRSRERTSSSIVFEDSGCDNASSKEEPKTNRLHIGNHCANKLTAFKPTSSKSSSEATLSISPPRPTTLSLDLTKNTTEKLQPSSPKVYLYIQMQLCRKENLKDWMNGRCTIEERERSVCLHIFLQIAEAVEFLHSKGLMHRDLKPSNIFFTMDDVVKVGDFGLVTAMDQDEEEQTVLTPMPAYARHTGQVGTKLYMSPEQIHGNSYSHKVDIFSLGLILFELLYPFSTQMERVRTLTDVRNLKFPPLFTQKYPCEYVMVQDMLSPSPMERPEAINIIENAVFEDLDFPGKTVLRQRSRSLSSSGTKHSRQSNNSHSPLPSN

[10] = target: T4, Eukaryotic translation initiation factor 2-alpha kinase 3; assay: Counterscreen assay for PERK inhibitors: Dose response cell-based high throughput screening assay to measure inhibition of PERK at 6 hours. [Related pubchem assays: 1522, 1416 ]; format: functional
Nonstructural protein 1 = Nonstructural protein 1 (Influenza A virus, UniProt Q194T2); format: functional, Influenza A virus (A/California/07/2009(H1N1))
Cytochrome P450 2C19 = Cytochrome P450 2C19 (Homo sapiens, UniProt P33261); assay: Cytochrome panel assay with activity outcomes. Panel member name: p450-cyp2c19 Compounds with AC50 equal or less than 10 uM are considered active; format: functional
Cytochrome P450 2C9 [11] = target: T5, Cytochrome P450 2C9 (Homo sapiens, UniProt P11712)
Cytochrome P450 2C9 [12] = target: T5, Cytochrome P450 2C9; conditions: Potency
[13] = target: DNA dC->dU-editing enzyme APOBEC-3A (Homo sapiens, UniProt P31941); assay: Dose Response confirmation of small molecule APOBEC3A DNA Deaminase Inhibitors via a fluorescence-based single-stranded DNA deaminase assay. [Related pubchem assays (depositor defined):AID493011, AID493024]; format: functional
[14] = target: DNA dC->dU-editing enzyme APOBEC-3G (Homo sapiens, UniProt Q9HC16); format: functional;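 note: Dose-response counterscreen measuring inhibition of APOBEC3G DNA deaminase activity, run while confirming APOBEC3A inhibitors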
Protein Rev = Protein Rev (Human immunodeficiency virus type 1 group M subtype B (isolate HXB2)(HIV-1), UniProt P04618); assay: blockers of HIV Rev/RRE RNA complex – biochemical, fluorescence polarization, HIV-1, dose response (AID 434976); parameters: species or system Human immunodeficiency virus 1
[15] = target: Female germline-specific tumor suppressor gld-1 (Caenorhabditis elegans, UniProt Q17339); assay: blockers of GLD-1/TGE RNA complex formation – biochemical, fluorescence polarization, C. elegans, dose response (AID 2802);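 note: fluorescence polarization of labeled TGE RNA bound by purified gld-1 protein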
[16] = target: T3, Polyadenylate-binding protein 1; assay: MLLE binding blockers, Cy5 peptide tracer – biochemical, fluorescence polarization, Cy5-PAM2 peptide, secondary, miRNA deadenylation inhibitor project, dose response (AID 602260); format: functional; conditions: read-out: IC50_Mean
[17] = target: T3, Polyadenylate-binding protein 1; assay: MLLE domain peptide-binding blockers, IC50 – biochemical, fluorescence polarization, FITC-PAM2 peptide, dose response (AID 602259); format: functional; conditions: read-out: IC50_Mean

T3 sequence (P11940 whole entry): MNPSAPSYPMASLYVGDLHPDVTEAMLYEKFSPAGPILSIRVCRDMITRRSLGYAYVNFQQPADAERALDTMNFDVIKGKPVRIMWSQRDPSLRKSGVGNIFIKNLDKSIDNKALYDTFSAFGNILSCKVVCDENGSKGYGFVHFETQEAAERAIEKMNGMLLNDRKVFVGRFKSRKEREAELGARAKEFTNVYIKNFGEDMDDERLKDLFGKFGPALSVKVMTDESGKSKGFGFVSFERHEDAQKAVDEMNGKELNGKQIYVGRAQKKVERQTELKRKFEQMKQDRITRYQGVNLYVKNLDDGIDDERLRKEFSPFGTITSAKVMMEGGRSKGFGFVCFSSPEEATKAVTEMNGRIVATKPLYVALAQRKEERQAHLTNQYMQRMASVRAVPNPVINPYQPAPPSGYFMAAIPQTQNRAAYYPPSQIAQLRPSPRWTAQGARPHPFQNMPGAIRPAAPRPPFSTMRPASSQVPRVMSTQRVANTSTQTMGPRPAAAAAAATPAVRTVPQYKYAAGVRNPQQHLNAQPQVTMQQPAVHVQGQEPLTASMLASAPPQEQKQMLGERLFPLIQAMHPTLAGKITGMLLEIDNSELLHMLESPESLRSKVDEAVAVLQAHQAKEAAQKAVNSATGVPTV
T5 sequence (P11712 whole entry): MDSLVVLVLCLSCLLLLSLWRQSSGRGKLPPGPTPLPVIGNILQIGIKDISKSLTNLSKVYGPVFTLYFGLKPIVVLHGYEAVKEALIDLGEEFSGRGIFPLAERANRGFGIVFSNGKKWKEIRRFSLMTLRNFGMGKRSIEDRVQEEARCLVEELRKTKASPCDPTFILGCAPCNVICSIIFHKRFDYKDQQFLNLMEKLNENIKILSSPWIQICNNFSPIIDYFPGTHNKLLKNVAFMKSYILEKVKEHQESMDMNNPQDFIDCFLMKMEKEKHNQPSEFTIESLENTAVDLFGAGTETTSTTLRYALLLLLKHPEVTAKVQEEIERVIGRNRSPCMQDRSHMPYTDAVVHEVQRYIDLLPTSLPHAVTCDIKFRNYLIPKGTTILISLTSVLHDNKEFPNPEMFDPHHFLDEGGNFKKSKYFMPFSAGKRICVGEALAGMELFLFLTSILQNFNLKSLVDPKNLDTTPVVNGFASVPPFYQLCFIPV
Sequence of Bcl-2-like protein 10 (Q9HD36 whole entry): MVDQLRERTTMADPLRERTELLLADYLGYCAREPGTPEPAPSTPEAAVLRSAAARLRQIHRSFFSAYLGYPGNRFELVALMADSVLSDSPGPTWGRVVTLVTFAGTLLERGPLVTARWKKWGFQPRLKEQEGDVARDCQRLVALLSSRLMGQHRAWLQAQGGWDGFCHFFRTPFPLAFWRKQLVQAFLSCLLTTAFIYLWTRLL
Sequence of Protein Rev (P04618 whole entry): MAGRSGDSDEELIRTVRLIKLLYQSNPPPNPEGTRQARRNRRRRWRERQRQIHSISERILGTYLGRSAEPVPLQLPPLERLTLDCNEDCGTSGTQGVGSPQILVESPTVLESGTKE
Sequence of Female germline-specific tumor suppressor gld-1 (Q17339 whole entry): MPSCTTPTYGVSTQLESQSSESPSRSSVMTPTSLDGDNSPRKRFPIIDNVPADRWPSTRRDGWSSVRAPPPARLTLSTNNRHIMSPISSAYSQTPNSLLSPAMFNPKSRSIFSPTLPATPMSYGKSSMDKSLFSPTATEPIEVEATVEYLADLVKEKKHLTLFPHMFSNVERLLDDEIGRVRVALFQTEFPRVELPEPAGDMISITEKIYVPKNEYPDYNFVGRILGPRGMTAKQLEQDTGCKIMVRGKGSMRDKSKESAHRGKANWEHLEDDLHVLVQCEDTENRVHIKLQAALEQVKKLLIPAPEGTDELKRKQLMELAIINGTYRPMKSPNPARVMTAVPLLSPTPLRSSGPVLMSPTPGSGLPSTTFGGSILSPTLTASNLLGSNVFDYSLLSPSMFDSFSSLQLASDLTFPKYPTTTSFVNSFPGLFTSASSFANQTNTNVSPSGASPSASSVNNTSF
Sequence of Nonstructural protein 1 (Q194T2 whole entry): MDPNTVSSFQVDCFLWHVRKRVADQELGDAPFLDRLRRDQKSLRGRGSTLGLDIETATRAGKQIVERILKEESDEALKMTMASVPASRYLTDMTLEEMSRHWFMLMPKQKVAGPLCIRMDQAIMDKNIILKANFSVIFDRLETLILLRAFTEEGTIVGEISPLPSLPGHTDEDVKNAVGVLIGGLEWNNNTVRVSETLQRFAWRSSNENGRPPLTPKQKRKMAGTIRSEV
Sequence of Guanyl-specific ribonuclease T1 (P00651 whole entry): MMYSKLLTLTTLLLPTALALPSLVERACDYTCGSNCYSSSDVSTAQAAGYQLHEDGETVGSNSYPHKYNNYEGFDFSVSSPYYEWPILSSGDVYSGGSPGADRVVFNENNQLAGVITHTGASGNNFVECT
Sequence of Likely tRNA 2'-phosphotransferase (Q5A7N4 whole entry): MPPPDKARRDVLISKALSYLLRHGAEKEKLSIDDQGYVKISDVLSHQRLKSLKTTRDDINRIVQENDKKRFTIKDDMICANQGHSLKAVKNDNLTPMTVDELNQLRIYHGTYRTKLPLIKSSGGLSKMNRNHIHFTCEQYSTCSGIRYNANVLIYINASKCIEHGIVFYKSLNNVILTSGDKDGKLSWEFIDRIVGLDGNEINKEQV
Sequence of Cytochrome P450 2C19 (P33261 whole entry): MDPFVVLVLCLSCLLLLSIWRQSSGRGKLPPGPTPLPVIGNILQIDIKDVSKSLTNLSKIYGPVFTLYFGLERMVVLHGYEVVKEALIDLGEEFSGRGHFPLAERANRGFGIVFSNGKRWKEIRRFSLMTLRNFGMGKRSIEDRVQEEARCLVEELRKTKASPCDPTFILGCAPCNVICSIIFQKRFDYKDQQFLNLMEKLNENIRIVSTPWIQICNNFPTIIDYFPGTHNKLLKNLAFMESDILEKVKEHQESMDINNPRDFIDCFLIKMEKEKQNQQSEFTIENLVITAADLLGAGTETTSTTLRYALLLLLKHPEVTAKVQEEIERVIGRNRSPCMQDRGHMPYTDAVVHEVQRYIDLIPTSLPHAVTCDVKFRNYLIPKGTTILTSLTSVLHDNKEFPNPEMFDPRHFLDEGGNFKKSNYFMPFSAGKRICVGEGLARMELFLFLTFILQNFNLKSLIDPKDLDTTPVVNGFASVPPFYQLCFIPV
Sequence of DNA dC->dU-editing enzyme APOBEC-3A (P31941 whole entry): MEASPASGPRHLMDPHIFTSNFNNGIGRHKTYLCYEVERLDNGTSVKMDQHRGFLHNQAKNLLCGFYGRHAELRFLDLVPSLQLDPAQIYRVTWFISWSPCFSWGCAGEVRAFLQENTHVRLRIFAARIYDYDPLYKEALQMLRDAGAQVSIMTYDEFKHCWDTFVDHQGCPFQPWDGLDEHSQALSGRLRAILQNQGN
Sequence of DNA dC->dU-editing enzyme APOBEC-3G (Q9HC16 whole entry): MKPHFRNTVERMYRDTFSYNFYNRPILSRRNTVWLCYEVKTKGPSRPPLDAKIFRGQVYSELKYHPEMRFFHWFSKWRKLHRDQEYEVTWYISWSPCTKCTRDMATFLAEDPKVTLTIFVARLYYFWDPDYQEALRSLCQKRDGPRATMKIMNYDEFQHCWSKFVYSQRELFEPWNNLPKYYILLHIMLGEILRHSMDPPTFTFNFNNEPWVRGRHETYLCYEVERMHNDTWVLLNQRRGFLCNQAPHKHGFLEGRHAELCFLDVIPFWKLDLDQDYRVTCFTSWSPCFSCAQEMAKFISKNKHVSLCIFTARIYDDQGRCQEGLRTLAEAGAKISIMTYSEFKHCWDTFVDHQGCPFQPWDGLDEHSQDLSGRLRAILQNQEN

CCOc1cc(/C=C2\C(=O)NC(=O)N(CCc3ccc(F)cc3)C2=O)ccc1O
EC50 [1]: > 300 µM (not active) | IC50 [2]: 28 µM (not active) | EC50 [3]: > 300 µM (not active) | IC50 [4]: > 55.7 µM (not active)

COc1ccc(-c2coc3c(CN4CCCCC4)c(O)c(CN4CCCCC4)c(O)c3c2=O)cc1
IC50 (Bcl-2-like protein 10): 79.7 µM (inactive) | EC50 [5]: 34.4 µM (active) | EC50 [6]: 32.6 µM (active)

Cc1ccc[n+](CC(=O)c2ccccc2)c1
IC50 [7]: > 100 µM (inactive) | IC50 [8]: 5.7 µM (active)

O=C(Cn1cnc([N+](=O)[O-])n1)N/N=C/c1ccccc1O
EC50 [9]: > 55.7 µM (not active) | EC50 [10]: > 55.7 µM (not active) | IC50 (Nonstructural protein 1): 9.05 µM (active) | AC50 (Cytochrome P450 2C19): inconclusive | AC50 (Cytochrome P450 2C9 [11]): 10 µM (inconclusive)

O=C(COC(=O)CC12CC3CC(CC(C3)C1)C2)Nc1ncc(Cl)cc1Cl
IC50 (Bcl-2-like protein 10): 40.2 µM (active)

CC(C)[C@@H](CC(=O)N[C@@H]1CCNC[C@H]1C(=O)N[C@H](CC(=O)N[C@@H](CCC(=O)O)CC(=O)O)Cc1c[nH]c2ccccc12)NC(=O)C[C@H](CO)NC(=O)[C@@H]1CNCC[C@H]1N
AC50 (Cytochrome P450 2C9 [12]): 39.8 µM (inconclusive)

Cc1ccccc1NC(=O)NCCCN1CCCC1
EC50 [9]: > 55.7 µM (not active) | EC50 [10]: > 55.7 µM (not active)

C[N+]1(CC(O)c2ccccc2)CCCCCC1 (stereo unspecified)
IC50 [7]: 60.9 µM (active) | IC50 [8]: 5.42 µM (active) | IC50 [13]: 2.71 µM (active) | IC50 [14]: 4.26 µM (active)

CN(C(=O)CN1C(=O)c2cccc(N)c2C1=O)C1CCCCC1
IC50 (Protein Rev): > 8.39 µM (active) | IC50 [15]: 4.29 µM (active) | IC50 [16]: > 66 µM (inactive) | IC50 [17]: 32.6 µM (inactive)
